Data as given in the supplement of paper PMC10307832.

Experiments:
Experiment in all cases: relative viability (nuclei count vs DMSO), 5 days (fraction); higher = more cells survive
GSK-J4 + Crizotinib = compound: CCOC(=O)CCNc1cc(N2CCc3ccccc3CC2)nc(-c2ccccn2)n1 [GSK-J4] + C[C@@H](Oc1cc(-c2cnn(C3CCNCC3)c2)cnc1N)c1c(Cl)ccc(F)c1Cl [Crizotinib] (partner 1 µM)
Outline: (§1)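 Values are medians from duplicate plates. Each reflects relative viability, defined as the nuclei count of treated wells over that of vehicle wells. Lung cancer cell lines in 1536-well plates were pin-tool dosed one day after seeding with one drug alone or with a fixed anchor-drug dose plus five library-drug doses (not always all listed) in √10 steps, then fixed, stained and imaged at 4× after 5 days.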

AZ3146 + Tozasertib = compound: CN1CCC(CC1)OC2=CC(=C(C=C2)NC3=NC=C4C(=N3)N(C(=O)N4C)C5CCCC5)OC [AZ3146] + Cc1cc(Nc2cc(N3CCN(C)CC3)nc(Sc3ccc(NC(=O)C4CC4)cc3)n2)n[nH]1 [Tozasertib] (partner 0.1 µM)
Outline: as §1

AZ3146 + Vorinostat = compound: CN1CCC(CC1)OC2=CC(=C(C=C2)NC3=NC=C4C(=N3)N(C(=O)N4C)C5CCCC5)OC [AZ3146] + O=C(CCCCCCC(=O)Nc1ccccc1)NO [Vorinostat] (partner 1 µM)
Outline: as §1

GSK-J4 + Decitabine = compound: CCOC(=O)CCNc1cc(N2CCc3ccccc3CC2)nc(-c2ccccn2)n1 [GSK-J4] + Nc1ncn([C@H]2C[C@H](O)[C@@H](CO)O2)c(=O)n1 [Decitabine] (partner 2 µM)
Outline: as §1

Row | Cell Line | relative viability (GSK-J4 + Crizotinib; first compound 0.5 µM) | relative viability (GSK-J4 + Crizotinib; first compound 1.581 µM) | relative viability (GSK-J4 + Crizotinib; first compound 5 µM) | relative viability (GSK-J4 + Crizotinib; first compound 15.81 µM) | relative viability (GSK-J4 + Crizotinib; first compound 50 µM) | relative viability (AZ3146 + Tozasertib; first compound 0.08 µM) | relative viability (AZ3146 + Tozasertib; first compound 0.253 µM) | relative viability (AZ3146 + Tozasertib; first compound 0.8 µM) | relative viability (AZ3146 + Tozasertib; first compound 2.53 µM) | relative viability (AZ3146 + Tozasertib; first compound 8 µM) | relative viability (AZ3146 + Vorinostat; first compound 0.08 µM) | relative viability (AZ3146 + Vorinostat; first compound 0.253 µM) | relative viability (AZ3146 + Vorinostat; first compound 0.8 µM) | relative viability (AZ3146 + Vorinostat; first compound 2.53 µM) | relative viability (AZ3146 + Vorinostat; first compound 8 µM) | relative viability (GSK-J4 + Decitabine; first compound 0.5 µM) | relative viability (GSK-J4 + Decitabine; first compound 1.581 µM) | relative viability (GSK-J4 + Decitabine; first compound 5 µM) | relative viability (GSK-J4 + Decitabine; first compound 15.81 µM) | relative viability (GSK-J4 + Decitabine; first compound 50 µM)
1 | LC-2-ad | 0.554 | 0.426 | 0.375 | 0.41 | 0.427 | 0.323 | 0.44 | 0.424 | 0.365 | 0.269 | 0.629 | 0.703 | 0.69 | 0.694 | 0.603 | 0.746 | 0.803 | 0.866 | 0.776 | 0.793
2 | COR-L 105 | 0.843 | 0.7 | 0.547 | 0.749 | 0.695 | 0.409 | 0.335 | 0.304 | 0.293 | 0.309 | 0.819 | 0.887 | 0.902 | 0.879 | 0.487 | 0.723 | – | 0.507 | 0.644 | 0.654
3 | NCI-H647 | 1.01 | 0.759 | 0.865 | 0.991 | 1.01 | 0.236 | 0.358 | 0.143 | 0.191 | 0.157 | 0.537 | 0.426 | 0.607 | 0.667 | 0.186 | 0.376 | 0.393 | 0.374 | 0.337 | 0.496
